Laboratory results as given in patent publication US20080206198A1, “Compounds and methods for pharmico-gene therapy of epithelial sodium channel associated disorders” (priority 2003, published 2008).
Peptide text beside a SMILES is read from it. * marks the point of attachment. Cbz = O=C(OCc1ccccc1)*

Legend:
HeLa cells = assay: AAV2 FLAG-Luc transduction of HeLa cells (luciferase screen); type: cell-based, human; conditions: for concentration at which transduction was enhanced: HeLa cells
Text: (§1) A. To screen for agents that enhance rAAV transduction, any number of cells can be used. A range of concentrations of the agent to be tested can be determined based on, for instance desirable profiles of the agent, desirable toxicity profiles of the agent and/or concentration of the agents employed in vivo. The usefulness of the cell type chosen for the screen can be confirmed by testing compounds, e.g., proteasome inhibitors such as LLnL and ZLL which are known to increase rAAV transduction. For example, a AAV2 FLAG-Luc vector was employed to transduce HeLa, ferret fibroblasts, IB3 and Huh (liver) cells in the presence or absence of the proteasome inhibitor MG132. MG132 was confirmed to enhance AAV transduction in all cell types tested: HeLa cell transduction was enhanced about 500-fold at 80 μM, and 200-fold at 40 μM, MG132; ferret fibroblast cell transduction was enhanced about 200-fold at 20 μM, and 17-fold at 4 μM, MG132; IB3-1 cell transduction was enhanced about 30 to 70-fold at 20 to 80 μM MG132; and Huh-7 cell transduction was enhanced about 15-fold at 20 to 80 μM MG132. There was no difference in rAAV transduction efficiency in HeLa cells when either DMSO or ETOH was used as a vehicle for MG132. B. HeLa cells were selected to screen for additional agents that enhance rAAV transduction, although any cell strain or line; or primary cells, may be employed. […] The range of concentrations of the agents to be tested were selected based on solubility profiles, toxicity profiles and/or concentrations previously employed in vivo.
HeLa cells were infected for 2 hours with an MOI of 100 rAAV in the presence of agents, e.g., ritonavir (Norvir) (1, 10 and 100 μM), cyclosporin A (2.5, 25 and 250 μg/ml), epoxomicin (1, 10 and 50 μM), alcacinomycin A (5, 50 or 500 μM), chymostatin (1, 10 and 100 μM), bestatin (1, 10 and 100 μM), doxorubicin (adriamycin) (0.1, 1 and 10 μM), camptothecin (camptosar) (1, 10 and 100 μM), eicosapentanoic acid (1, 10 and 100 μM), tannic acid (2, 20, 200 and 2000 μM), simvastatin, prodrug (2, 20 and 200 μM), cisplatin (0.2, 2 and 20 μg/mL), and chloroquine (4, 40 and 400 μM). Forty-eight hours after infection, cells were harvested for analysis. rAAV transduction was measured by removing the media from the cell cultures, adding 100 μL reporter lysis buffer (RLB) and freezing. The supernatant was thawed and transferred to microfuge tubes, freeze thawed an additional 2 times, clarified by centrifugation for 10 minutes and then analyzed for reporter gene expression on the lumometer. Protein was determined by Bradford analysis and results were expressed as relative light units per mg protein (RLU/mg).
Based on results with doxorubicin, a small number of FDA approved anthracyclines were tested for their relative in vitro and in vivo activities on AAV transduction. HeLa cells were infected with 100 ppc AAV2FLAG-Luc for 2 hours in the presence of different anthracyclines, e.g., doxorubicin, daunarubicin (Cerubidine), epirubicin (Ellence™), and idarubicin (Idamycin®), and cells harvested 48 hours later. The anthracyclines were pharmaceutical grade, and prepared according to the manufacturer's instructions. Prior to use, the agents were diluted in sterile water to an equal mass, e.g., 0.6 μg/mL, 3 μg/mL and 6 μg/mL. For example, 3 μg/mL idamycin increased luciferase expression by over 5000-fold while doxorubin increased luciferase expression by 58-fold. Generally, the potency was as follows: idarubicin>daunarubicin>epirubicin>doxorubicin.

ferret fibroblasts = assay: rAAV transduction of ferret fibroblasts; type: cell-based; conditions: for concentration at which transduction was enhanced: ferret fibroblast cells
Text: as §1
(§2) C. To determine whether combinations of agents that enhance rAAV transduction efficiency have synergistic or additive effects when used in combination, cells were contacted with the proteasome modulator, doxorubicin, and the proteasome inhibitor Z-LLL or LLnL. Different AAV vectors were tested, including splicing vectors and pseudotyped rAAV. Viral stocks utilized were as follows: Av2RSVluc, 5×10^8 particle/μl; Av2RSVlucCap5 (also referred to as Av2/5 CMVLuc), 2×10^9 particle/μl; Av2CMVluc, 1.3×10^9 particle/μl; and Av2CMVlucCap5, 1.1×109 particle/μl. Combinations of agents were compared to the agents used alone to determine the efficiency of transduction. LLnL was used at 40, 200 or 400 μM, Z-LLL at 4 μM and doxorubicin at 0.5 or 1 μM when employed alone. When a combination of LLnL and doxorubicin was used, LLnL was used at 4, 10, 20, 40, 200 or 400 μM and doxorubicin at 1 or 5 μM. The apical surface of polarized airway epithelia, HeLa cells or ferret fibroblast was contacted with the agents and rAAV (5×10^9 particles per well).

IB3 cells = assay: AV2Luc and AV2/5Luc transduction of IB3 cells; type: cell-based, human; conditions: 24 hours post-infection
Procedure: LLnL and Z-LLL are two tripeptidyl aldehydes shown to inhibit calpains, cathepsins, cysteine proteases as well as the chymotrypsin-like protease activity of proteasomes (Wagner et al., 2002; Donkor, 2000; Sasaki et al., 1990). […] Both classes of proteasome inhibitors bind tightly to the proteasome complex. Dose response curves for these two proteasome-modulating agents were evaluated on IB3, A549, Hela, and primary fibroblasts. The responses were consistent for a number of cell lines and for three different promoters driving luciferase expression. For one set, CMV-driven luciferase constructs with an AAV2-based genome were employed that were packaged into AV2 or AV5 capsids. Cells were infected at various doses of AV2Luc and AV2/5Luc (MOIs 100 to 1000 particles/cell). At the time of infection, cells were treated with various concentrations of LLnL or Doxorubicin and gene expression was assayed at 24 hours post-infection. The effect of proteasome inhibitors on nuclear uptake of virus was evaluated using a previously-described protocol for fractionating viral DNA in the cytoplasm and nucleus (Xiao et al., 2002). Viral DNA content in the cytoplasmic and nuclear fractions was then evaluated by slot blot hybridization against a Luciferase DNA probe.

[1] = tested on: polarized airway epithelia; assay: Apical rAAV (AAV2 and AAV5 capsid) infection of polarized airway epithelia with agent combinations; type: cell-based, human; conditions: for concentration at which transduction was enhanced: polarized airway epithelial cells
Procedure: as §2

[2] = tested on: primary fetal fibroblasts; assay: rAAV transduction of primary fetal fibroblasts; type: cell-based; conditions: data not shown
Procedure: Hela, A549, IB3, and primary fetal fibroblasts were evaluated for AV2Luc and AV2/5Luc transduction in the presence of LLnL, Dox, or LLnL+Dox at various concentrations. The data shown is from Hela and A549 cells at the most optimal dose combination that induces rAV2Luc transduction to a greater extent than each compound alone.

CC(C)C[C@@H](C=O)NC(=O)[C@H](CC(C)C)NC(=O)[C@H](CC(C)C)NC(=O)OCc1ccccc1 [Z-LLL, N-carbobenzoxyl-L-leucinyl-L-leucinyl-L-leucinal] (Cbz-Leu-Leu-Leu-aldehyde)
enhancement of HeLa cell transduction (HeLa cells; 40 μM): about 200 fold
enhancement of HeLa cell transduction (HeLa cells; 80 μM): about 500 fold
enhancement of ferret fibroblast cell transduction (ferret fibroblasts; 4 μM): ~17 fold
enhancement of ferret fibroblast cell transduction (ferret fibroblasts; 20 μM): about 200 fold

COc1cccc2c1C(=O)c1c(O)c3c(c(O)c1C2=O)C[C@@](O)(C(=O)CO)C[C@@H]3O[C@H]1C[C@H](N)[C@H](O)[C@H](C)O1 [doxorubicin]
induction of rAAV transduction (IB3 cells): 200 fold
induction of AAV2 and AAV5 apical infection of polarized cells ([1]; in the presence of doxorubicin): 200 to 600 fold
concentration at which transduction was enhanced [1]: 5 µM
induction of transduction [2]: most significantly enhances transduction
result in cell line screening (HeLa cells): tested positive
increase in luciferase expression (HeLa cells; 3 μg/mL, 100 ppc AAV2FLAG-Luc, harvest 48 hours): 58 fold
order of potency among anthracyclines (HeLa cells; 0.6, 3 and 6 μg/mL): idarubicin>daunarubicin>epirubicin>doxorubicin
concentration at which transduction was enhanced (HeLa cells): 1 µM
dose dependence of transduction (HeLa cells; dose ranges tested): dose-dependent increase in transduction
concentration at which transduction was enhanced (ferret fibroblasts): 1 µM
enhancement of transduction (ferret fibroblasts; ferret fibroblasts infected with lacZ splicing vectors): about 100 fold

N-acetyl-L-leucinyl-L-leucinal-L-norleucinal [LLnL]
induction of rAAV transduction (IB3 cells): > 200 fold
concentration at which transduction was enhanced [1]: 40 µM
induction of transduction [2]: 10 fold
concentration at which transduction was enhanced (HeLa cells): 40 µM
concentration at which transduction was enhanced (ferret fibroblasts): 40 µM
